Assay results: patent US20240423957A1, “TOPICAL ANTI-INFLAMMATORY AND ANALGESIC COMPOSITIONS AND METHODS OF USE” (INSIGNIA PHARMACEUTICALS, LLC, priority 2023, published 2024)
Entries after “also recorded” stand apart in the source; their conditions may differ.

What was measured:
[1] = system: Human osteoarthritic chondrocytes; experiment: Immunostaining of human osteoarthritic chondrocytes cultured 24 days on hyaluronic acid hydrogel (SOX9, Col2a1, ACAN); format: cell-based
Description: The chondrocytes were layered on top of a hyaluronic acid hydrogel ([…]®, Sanofi-Aventis, United States) to promote a three-dimensional culture environment. Following 24 days, the cells were fixed with paraformaldehyde and immunostained for SOX9, Col2a1, and ACAN.

[2] = system: Human osteoarthritic chondrocytes; experiment: Real-time RT-PCR of Col2a1 mRNA in human osteoarthritic chondrocytes cultured 20 days; format: cell-based; conditions: delta-delta CT against GAPDH, actin, 18S rRNA
Procedure: The chondrocytes were layered on top of a hyaluronic acid hydrogel ([…]®, Sanofi-Aventis, United States) to promote a three-dimensional culture environment. Following 20 days, hyaluronidase was added to release the cells from the hydrogel, the cells were collected, and total RNA was isolated.

[3] = system: human chondrocyte spheroids; experiment: Morphology of human chondrocyte spheroids in hyaluronic acid hydrogel; format: cell-based
[4] = system: THP-1 macrophage-like cells; experiment: IL-1beta release (ELISA) from PMA-differentiated THP-1 macrophage-like cells; format: cell-based, human; conditions: 0.2 to 6 millimolar; activation with 100 ng/mL LPS 24 hours then 10 millimolar ATP 1 hour (FIG. 4)
Procedure: (§1) The human monocyte cell line THP-1 was differentiated into macrophage-like cells with PMA for 72 hours. […] Cells were then activated with 100 nanograms per milliliter LPS for 24 hours followed by an additional hour with 10 millimolar adenosine triphosphate (ATP). IL-1beta release was quantified by enzyme-linked immunosorbent assay (ELISA).

THP-1 cells = experiment: Viability of PMA-differentiated THP-1 cells (optical density at 490 nanometers); format: cell-based, human
Procedure: as §1
Cell viability was also assessed by optical density at 490 nanometers (FIGS. 5A & 5B).

[5] = cited from earlier work
[6] = high-density monolayers, ethanol vehicle, 0.1, 0.5 and 1 millimolar, 24 days

For CCCCCCCCCC(=O)O [decanoic acid], the “ACAN immunostaining of chondrocyte spheroids” value ([1]; 1 millimolar) was “strong ACAN immunostaining”, the “SOX9 staining of spheroids” value ([1]; 1 millimolar, 24 days) was “stained strongly for SOX9” and the “spheroid development or condensation” value ([1]; 1 millimolar, 24 days) was “enhanced spheroid development or condensation”. For the same compound, the “concentration with peak Col2a1 staining” value ([1]; high-density monolayers) was 0.5 millimolar, the “nuclear staining for SOX9” value [1, 6] was “enhanced nuclear staining for SOX9 in a dose-dependent manner” and the “punctate staining for ACAN” value [1, 6] was “dose-dependent punctate staining for ACAN”. The “punctate staining for Col2a1” value [1, 6] was “dose-dependent punctate staining for Col2a1”, the “concentration with strongest ACAN staining” value ([1]; low-density monolayers) was 1 millimolar and the “punctate immunostaining for Col2a1” value ([1]; low-density monolayers, 1 millimolar) was “strong punctate immunostaining for Col2a1”. For the same compound, the “increase in Col2a1 mRNA” value ([2]; 0.5 millimolar) was 1 fold, the “increase in Col2a1 mRNA” value ([2]; 1 millimolar) was 7 fold and the spheroid morphology ([3]; after 4 days of culture (FIGS. 2A & 2B)) was “promoted interconnected networks of spheroids; also recorded: generated interconnected networks that suspended the spheroids”. The spheroid morphology ([3]; after 20 days of culture (FIGS. 3A & 3B)) was “large spheroid development or condensation”, the IL-1beta release [4] was “dose-dependent inhibition of IL-1beta release; also recorded: dose-dependent inhibition of IL-1beta concentrations” and the cell viability (THP-1 cells; 6 millimolar (FIGS. 5A & 5B)) was “unfavorable effect on viability; also recorded: significant decrease in viability”. For the same compound, the cell viability (THP-1 cells; concentrations below 6 millimolar (from 0.19 millimolar), relative to vehicle controls) was “no lower concentration of decanoic acid reduced cell viability” and the pKa [5] was “about 4.9”.
